Several values for one entry are separate records, joined by “and”; a condition that tells them apart may be missing. Equal values may be shown once. Where only a bound is given, the exact number is not on record here.

This is an account of results in patent publication US6620828B2, “Thiazole compounds and pharmaceutical compositions for inhibiting protein kinases and methods for their use” (Agouron Pharmaceuticals, Inc., priority 1999, dated 2003).

Data set [1] has as its target T1, phosphorylated VEGF-R2Δ50 (Homo sapiens, UniProt P35968, DEL940-989/E990V).
T1 construct: VEGF-R2Δ50 contains residues 806-939 and 990-1171; made in house; host or cells: baculovirus/insect cells
Briefly: VEGF-R2 ELISA assay. The data set is classed as biochemical. The settings on record: Table 2; * determined with ELISA assay; read-out: FLVK-P Ki. The procedure, abridged: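 Pre-autophosphorylated human VEGF-R2Δ50 (residues 806-939/990-1171, E990V; baculovirus) at 0.8 nM was run with 2 μM biotin-gastrin(1-17), 20 μM ATP, 26 mM MgCl2, 2 mM MnCl2, pH 7.5 Hepes. Phosphopeptide was captured on streptavidin and detected by anti-pTyr-HRP/ABTS at 405 nm; Ki came from activity at varying compound concentrations.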

For another data set, the target named is CDK2/Cyclin A complex (Homo sapiens, UniProt P24941). Nature of the data set: CDK2/Cyclin A assay. The data set is classed as biochemical. The settings on record: Table 2; for CDK2 % inhibition @ 100: at 100 (printed 100 or 100 μM). The procedure, abridged:
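Radiometric assay: 150 nM CDK2/cyclin A (insect-cell CDK2, truncated cyclin A) phosphorylates His-tagged Rb fragment (residues 386-928) with 25 μM ATP plus [32P]ATP, pH 7.4 HEPES, 2% DMSO, 30 °C for 20 min. Filter-captured product counted by phosphorimager; apparent Ki from competitive or tight-binding inhibition fits.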

For the next data set, the target named is T2, CDK4/Cyclin D3 complex (Homo sapiens, UniProt P11802).
T2 construct: made in house; host or cells: insect cells co-infected with baculovirus vectors
T2 sequence (P11802 whole entry): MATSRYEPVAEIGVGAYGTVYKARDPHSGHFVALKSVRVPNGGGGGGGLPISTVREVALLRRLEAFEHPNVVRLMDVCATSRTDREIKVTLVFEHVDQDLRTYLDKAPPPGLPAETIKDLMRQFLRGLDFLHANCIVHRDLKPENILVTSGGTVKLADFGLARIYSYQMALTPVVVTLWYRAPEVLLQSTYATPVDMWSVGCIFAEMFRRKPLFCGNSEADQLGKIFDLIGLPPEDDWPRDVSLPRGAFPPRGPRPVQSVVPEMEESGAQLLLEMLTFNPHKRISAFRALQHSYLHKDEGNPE
T2 sequence (P30281 whole entry partner): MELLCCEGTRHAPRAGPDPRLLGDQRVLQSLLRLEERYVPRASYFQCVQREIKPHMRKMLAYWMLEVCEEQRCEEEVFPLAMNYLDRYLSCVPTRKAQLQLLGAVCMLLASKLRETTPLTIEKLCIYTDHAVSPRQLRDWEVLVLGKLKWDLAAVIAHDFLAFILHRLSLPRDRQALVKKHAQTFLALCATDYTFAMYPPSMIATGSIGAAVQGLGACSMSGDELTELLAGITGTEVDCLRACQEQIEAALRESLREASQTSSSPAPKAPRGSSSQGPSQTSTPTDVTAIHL
Briefly: CDK4/Cyclin D assay. The data set is classed as biochemical. Conditions: Table 2; for inhibition at 100 µM: at 100 (printed 100 or 100 μM). An outline of the steps: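 Insect-cell-expressed CDK4/cyclin D3 (50 nM) phosphorylating His-tagged Rb fragment (residues 386-928) with 25 μM [^32P]ATP in HEPES pH 7.4, MgCl2, 2% DMSO; 20 min at 30 °C, EDTA stop. Filter-captured 32P by phosphorimager; apparent Ki from competitive or tight-binding inhibition fits.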

For another data set, the target named is T3, FAKcd409 (Homo sapiens, UniProt Q05397, P410T).
T3 construct: comprises residues methionine 409 to glutamate 689; made in house; host or cells: baculovirus vector expression system
T3 sequence (Q05397 409-689 P410T): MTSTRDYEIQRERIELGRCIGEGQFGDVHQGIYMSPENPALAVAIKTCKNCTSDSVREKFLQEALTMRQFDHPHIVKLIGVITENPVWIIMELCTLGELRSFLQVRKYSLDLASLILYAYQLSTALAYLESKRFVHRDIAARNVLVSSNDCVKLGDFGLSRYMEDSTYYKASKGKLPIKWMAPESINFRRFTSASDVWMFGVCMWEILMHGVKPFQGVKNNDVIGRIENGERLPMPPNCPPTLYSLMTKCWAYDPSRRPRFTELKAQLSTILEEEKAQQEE
Nature of the data set: FAK HTS assay. The data set is classed as biochemical. Conditions: 10 uM compound, HTS Delphia assay; for % inhibition of FAK: 10 µM.

A further data set has as its target T4, CHK1 (Homo sapiens, UniProt O14757).
T4 sequence (O14757 1-476): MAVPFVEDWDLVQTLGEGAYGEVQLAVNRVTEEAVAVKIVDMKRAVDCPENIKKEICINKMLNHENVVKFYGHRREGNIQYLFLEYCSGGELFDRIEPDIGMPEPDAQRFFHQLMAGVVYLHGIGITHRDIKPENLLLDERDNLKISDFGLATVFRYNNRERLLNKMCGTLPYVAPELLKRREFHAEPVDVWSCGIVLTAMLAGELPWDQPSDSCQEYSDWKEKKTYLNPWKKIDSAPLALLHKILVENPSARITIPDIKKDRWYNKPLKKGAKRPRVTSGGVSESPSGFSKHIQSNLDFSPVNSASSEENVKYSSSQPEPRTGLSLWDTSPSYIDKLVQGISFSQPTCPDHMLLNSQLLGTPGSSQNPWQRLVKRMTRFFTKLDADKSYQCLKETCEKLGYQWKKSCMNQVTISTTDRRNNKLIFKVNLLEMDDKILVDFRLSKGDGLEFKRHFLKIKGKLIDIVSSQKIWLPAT
Nature of the data set: CHK1 high-throughput screening. The settings on record: for % inhibition @ 20 μM: Table 4, repeated entries per example; for inhibition at 20 µM: read-out: % inhibition @ 20 μM, Table 4, repeated entries per example. Type of data set: biochemical.

Data set [2] addresses T5, phosphorylated VEGF-R2Δ50 (FLVK-P) (Homo sapiens, UniProt P35968, DEL940-989/E990V).
T5 construct: VEGF-R2Δ50 contains residues 806-939 and 990-1171; made in house; host or cells: baculovirus/insect cells
Nature of the data set: VEGF-R2 coupled spectrophotometric (FLVK-P) assay. The data set is classed as biochemical. The settings on record: for Ki: spectrophotometric assay. An outline of the steps:
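Baculovirus-expressed human VEGF-R2Δ50 (residues 806-939/990-1171, E990V) was autophosphorylated with 3 mM ATP, 40 mM MgCl2 for 2 h at 4° C. ADP formation was coupled via PK/LDH to NADH oxidation, read at 340 nm, with 5.1 mM poly(E4Y1), 1 mM ATP, 25 mM MgCl2, Hepes pH 7.5. Ki came from activity across compound concentrations.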

For data set [3], the system named is human umbilical vein endothelial cells (HUVEC). Nature of the data set: HUVEC proliferation assay. Type of data set: cell-based. Conditions: Homo sapiens, HUVEC, Table 1. The procedure, abridged: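 Exponentially growing HUVEC were serum-starved 24 h (F12K + 1% FBS), pre-treated 1 h with compound (0.1% DMSO final), then stimulated with 6 ng/ml VEGF. Proliferation was read 72 h later by MTT reduction (A595). IC50 came from seven 0.5-log concentrations in triplicate; screens gave % inhibition relative to VEGF-only and starved wells.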

Data set [4] relates to lung cancer cells (line MV522). Briefly: Cancer cell proliferation (MV522) assay. Type of data set: cell-based. Conditions: MV522, Table 1.

T5 sequence (P35968 with tags, fused parts or gaps DEL940-989/E990V limits assumed): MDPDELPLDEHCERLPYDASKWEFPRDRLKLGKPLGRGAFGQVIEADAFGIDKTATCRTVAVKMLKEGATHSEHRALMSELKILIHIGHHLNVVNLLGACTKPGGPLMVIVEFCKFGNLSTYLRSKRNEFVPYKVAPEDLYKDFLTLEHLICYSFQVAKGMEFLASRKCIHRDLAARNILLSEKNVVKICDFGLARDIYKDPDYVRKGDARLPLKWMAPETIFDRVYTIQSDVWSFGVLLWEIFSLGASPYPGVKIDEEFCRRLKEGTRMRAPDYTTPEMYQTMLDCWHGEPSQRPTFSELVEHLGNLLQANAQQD
T1 sequence (P35968 with tags, fused parts or gaps DEL940-989/E990V limits assumed): as above

Turning to `COc1cc(Nc2nc(N)c(-c3nc(-c4ccc(F)cc4F)cs3)s2)cc(OC)c1OC` [A(9), 4-(2,4-Difluoro-phenyl)-N^2′-(3,4,5-trimethoxy-phenyl)-[2,5′]bithiazolyl-2′,4′-diamine], the melting point was 180 to 183 °C (dec.). Besides, in data set [1], the Ki worked out at 1900 nM. The “CDK2 % inhibition @ 100” value at CDK2/Cyclin A complex is recorded as 29% @. Also, the inhibition at 100 µM on CDK4/Cyclin D3 complex is less than 0%. In addition, the “% inhibition of FAK” value on FAKcd409 is −6% and −5% and 4%.
In the case of `COc1cc(Nc2nc(N)c(-c3nc(-c4cccc(C(=O)Nc5ccc(C(C)C)c(C)c5)c4)cs3)s2)cc(OC)c1OC` [A(34), 3-[4′-Amino-2′-(3,4,5-trimethoxy-phenylamino)-[2,5′]bithiazolyl-4-yl]-N-(4-isopropyl-3-methyl-phenyl)-benzamide], at FAKcd409, the “% inhibition of FAK” value was −3% and −8% and −13%. Moreover, on CHK1, the “% inhibition @ 20 μM” value was 4.6% and −3.4%.
Regarding `COc1cc(Nc2nc(N)c(-c3nc(-c4cccc(C(=O)Nc5ccc6nc(C)ccc6c5)c4)cs3)s2)cc(OC)c1OC` [A(35), 3-[4′-Amino-2′-(3,4,5-trimethoxy-phenylamino)-[2,5′]bithiazolyl-4-yl]-N-(2-methyl-quinolin-6-yl)-benzamide], in [1], the Ki came to 390000 nM. The “% inhibition of FAK” value at FAKcd409 is −5% and −9% and −10%.
Regarding `Cc1ccc(Nc2nc(N)c(-c3nc(-c4cccc(NC(=O)OCc5ccccc5)c4)cs3)s2)cc1` [A(36), [3-(4′-Amino-2′-p-tolylamino-[2,5′]bithiazolyl-4-yl)-phenyl]-carbamic acid benzyl ester], the “FLVK-P % inhibition @ 0.05” value in data set [2] (Table 1, at 0.05, concentration unit not printed (head nM)) worked out at 36% @. The “% inhibition of FAK” value at FAKcd409 was −6% and −11% and −15%. Moreover, the inhibition at 20 µM at CHK1 is 2.8%.
Consider `CCOC(=O)c1cccc(Nc2nc(N)c(-c3nc(-c4cccc(NC(=O)c5ccccc5)c4)cs3)s2)c1` [A(40), 3-[4′-Amino-4-(3-benzoylaminophenyl)-[2,5′]bithiazolyl-2′-ylamino]-benzoic acid ethyl ester], for which the inhibition at 10 µM on FAKcd409 was -6%. Further, the inhibition at 20 µM at CHK1 is 1%.
Turning to `Cc1cccc(Nc2nc(N)c(-c3nc(-c4cccc(NC(=O)c5ccccc5)c4)cs3)s2)c1` [A(44), [3-(4′-Amino-2′-m-tolylamino-[2,5′]bithiazolyl-4-yl)-phenyl]-benzamide], the “% inhibition of FAK” value on FAKcd409 is −15% and −5% and −10%. Also, the inhibition at 20 µM at CHK1 was -7.1%.
`Nc1nc(Nc2ccc3c(c2)OCCO3)sc1-c1nc(-c2cccc(NC(=O)c3ccccc3)c2)cs1` [A(45), N-{3-[4′-Amino-2′-(2,3-dihydro-benzo[1,4]dioxin-6-ylamino)-[2,5′]bithiazolyl-4-yl]-phenyl}-benzamide]: in data set [2] (Table 1), the Ki amounted to 9.7 nM. The “% inhibition of FAK” value on FAKcd409 is −13% and −4% and −6%. Further, the inhibition at 20 µM on CHK1 was -1%.
In [2] (Table 1), `CC(=O)Nc1cc(Nc2nc(N)c(-c3nc(-c4cccc(NC(=O)c5ccccc5)c4)cs3)s2)ccc1C` [A(48), N-{3-[2′-(3-Acetylamino-4-methyl-phenylamino)-4′-amino-[2,5′]bithiazolyl-4-yl]-phenyl}-benzamide] displayed a Ki of 3.1 nM. The “% inhibition of FAK” value on FAKcd409 is −2% and −8%. In addition, the results for the IC50 in data set [3] and in [4] were 350 nM and greater than 10000 nM, respectively. Also, the inhibition at 20 µM on CHK1 came to 1.3%.
As to `Nc1nc(Nc2ccc3c(=O)[nH][nH]c(=O)c3c2)sc1-c1nc(-c2cccc(NC(=O)c3ccccc3)c2)cs1` [A(49), N-{3-[4′-Amino-2′-(1,4-dioxo-1,2,3,4-tetrahydro-phthalazin-6-ylamino)-[2,5′]bithiazolyl-4-yl]-phenyl}-benzamide], the “% inhibition of FAK” value at FAKcd409 is −13% and −7% and −10%. For the same molecule, the inhibition at 20 µM at CHK1 is 14.1%.
On to `Nc1nc(Nc2cccnc2)sc1-c1nc(-c2cccc(NC(=O)c3ccccc3)c2)cs1` [A(53), 3-(4′-Amino-4-(3-benzamidophenyl)-[2,5′]bithiazolyl-2′-ylamino)-pyridine], for which the inhibition constant Ki in data set [2] (Table 1) came out at 24 nM. In addition, on FAKcd409, the “% inhibition of FAK” value is −10% and −8%. Besides, the IC50 in data set [3] is 370 nM; in data set [4], greater than 10000 nM. Further, at CHK1, the inhibition at 20 µM is 4%.
In the case of `C=CCOc1cc(O)cc(-c2csc(-c3sc(Nc4ccc(S(N)(=O)=O)cc4)nc3N)n2)c1` [A(62), 4-[4-(3-Allyloxy-5-hydroxyphenyl)-4′-amino-[2,5′]bithiazolyl-2′-ylamino]-benzenesulfonamide], the melting point is 200 to 202 °C. Further, on CDK2/Cyclin A complex, the inhibition constant (Ki) worked out at 530 nM. The inhibition constant Ki on CDK4/Cyclin D3 complex was found to be 4400 nM. Further, on FAKcd409, the inhibition at 10 µM came to 7% and the “% inhibition of FAK” value is 6%. Further, on CHK1, the “% inhibition @ 20 μM” value worked out at 12.2% and the inhibition at 20 µM was found to be 7.4%.
In the case of `COc1ccc(/C=C/c2csc(-c3sc(Nc4ccc(S(N)(=O)=O)cc4)nc3N)n2)cc1O` [A(65), 4-{4′-Amino-4-[2-(3-hydroxy-4-methoxy-phenyl)-ethenyl]-[2,5′]bithiazolyl-2′-ylamino}-benzenesulfonamide], the melting point is 190 to 193 °C (dec.). Moreover, the Ki at CDK2/Cyclin A complex was determined as 150 nM. Also, at CDK4/Cyclin D3 complex, the Ki came out at 2100 nM. For the same molecule, the “% inhibition of FAK” value at FAKcd409 was −31% and −39%. Also, the “% inhibition @ 20 μM” value on CHK1 is 3.2% and 2.5% and 8.2%.
Take `Nc1nc(Nc2ccc(S(N)(=O)=O)cc2)sc1-c1nc(/C=C/C=C/c2ccccc2)cs1` [A(66), 4-[4′-Amino-4-(4-phenyl-buta-1,3-dienyl)-[2,5′]bithiazolyl-2′-ylamino]-benzenesulfonamide]: the melting point was 193 to 195 °C (dec.). The Ki on CDK2/Cyclin A complex came to 1100 nM. On FAKcd409, the “% inhibition of FAK” value was −38% and −39%. Besides, the “% inhibition @ 20 μM” value at CHK1 is 3.6% and 6.6% and 9.1%.
For the molecule `Nc1nc(Nc2ccc(S(N)(=O)=O)cc2)sc1-c1nc(C(=O)c2ccccc2)cs1` [A(67), 4-(4′-Amino-4-benzoyl-[2,5′]bithiazolyl-2′-ylamino)-benzenesulfonamide], the melting point was 255 to 260 °C (dec.). The same molecule came in with a Ki in data set [2] (Table 2) of 110 nM. For the same molecule, the Ki on CDK2/Cyclin A complex was 15 nM. Besides, the Ki on CDK4/Cyclin D3 complex came to 670 nM. Also, at FAKcd409, the “% inhibition of FAK” value is −29% and −33%.
As for `CCOC(=O)c1csc(-c2sc(Nc3ccc(S(N)(=O)=O)cc3)nc2N)n1` [A(68), Ethyl 4′-amino-2′-(4-sulfamoyl-phenylamino)-[2,5′]bithiazolyl-4-carboxylate], the Ki at CDK2/Cyclin A complex was determined as 130 nM; at CDK4/Cyclin D3 complex, 4500 nM. For the same molecule, the inhibition at 10 µM at FAKcd409 was -18%.
Consider `CCOC(=O)c1nc(-c2sc(Nc3ccc(S(N)(=O)=O)cc3)nc2N)sc1Cc1ccccc1` [A(73), 4′-Amino-5-benzyl-2′-(4-sulfamoyl-phenylamino)-[2,5′]bithiazolyl-4-carboxylic acid ethyl ester], for which the “CDK2 % inhibition @ 100” value at CDK2/Cyclin A complex is given as 36% @. Also, the inhibition at 100 µM at CDK4/Cyclin D3 complex was less than 0%. For the same molecule, the “% inhibition of FAK” value on FAKcd409 is −23% and −30%. Further, on CHK1, the “% inhibition @ 20 μM” value is 14.4% and 7.3%; the inhibition at 20 µM came out at 14.3%.
